“And” between values parts separate entries of the source, which are not always exact repeats. Equal entries are not always repeated. “Also recorded” adds a separate entry of the source.
Experiments:
[1] = tested on: Hsp70; assay: Phase I trial: plasma Hsp70 by sandwich ELISA; assay type: in vivo, human
Protocol: Plasma Hsp70 was measured by a sandwich ELISA kit (Stressgen Bioreagents Victoria, British Columbia, CANADA) according to a modified protocol in house. In brief, Hsp70 in plasma specimens and serial concentrations of Hsp70 standard were captured onto 96-well plate on which anti-Hsp70 antibody was coated. Then captured Hsp70 was detected with a biotinylated anti-Hsp70 antibody followed by incubation with europium-conjugated streptavidin. After each incubation unbound materials were removed by washing. Finally, antibody-Hsp70 complex was measured by time resolved fluorometry of europium. Concentration of Hsp70 was calculated from a standard curve.

[2] = tested on: non-small cell lung carcinoma; assay: Phase 1/2 study: tumor response (RECIST) with carboplatin and paclitaxel; assay type: in vivo, human; conditions: for Best Response / Target Lesions (percent change): one value per subject
[3] = Phase 1/2 lung carcinoma study: safety; assay type: in vivo, human
Protocol: Phase 1 (safety/PK/MTD (maximum tolerated dose) was followed by a Phase 2 randomized two arm portion. Two dose levels were evaluated in Phase 1.
Dosing was IV q 3 weeks for up to 6 cycles in the absence of dose-limiting toxicity or progression. […] The phase 2 primary endpoint is time to progression, with secondary endpoints of response rate, survival, and quality of life. Study pharmacodynamic parameters include NK cell activity and Hsp70 level.

[4] = Melanoma study: safety; assay type: in vivo, human
Protocol: The higher tolerated dose level was expanded to a total of 20 patients (Stage 1).
The study will continue to Stage 2 if 7 or more patients have a response of stable disease or better, or at least 2 patients have a partial response or better. A safety assessment was performed with the first 6 patients enrolled as the weekly dose schedule had not previously been studied in humans. The primary endpoint is non-progression rate (NPR) at 3 months and response rate. Pharmacodynamic parameters include pre and post-dose NK cell activity in blood and when possible, tumor biopsies.

[5] = tested on: soft tissue sarcomas; assay: Phase 2 study: tumor response with paclitaxel; assay type: in vivo, human
From the text: Major inclusion criteria are refractory or recurrent soft tissue sarcomas other than gastrointestinal stromal tumor (GIST), with evidence of recent progression. […] Best Response indicates an evaluation of the patient's tumor: PR=at least a 30% decrease in the sum of the longest diameters as compared to baseline; SD indicates less than 20% of an increase and less than 30% of a decrease in the sum of the longest diameters as compared to baseline; and PD=at least a 20% increase in the sum of the longest diameters as compared to baseline. NK Activity indicates the change in NK activity before and after dosing.

[6] = Sarcoma study: safety; assay type: in vivo, human; conditions: 213 mg/m2 Compound (1) and 80 mg/m2 paclitaxel weekly
Protocol: The study is a 2 stage design, enrolling 30 patients in the first stage and adding 50 patients to total 80 if certain continuation criteria are met. Major inclusion criteria are refractory or recurrent soft tissue sarcomas other than gastrointestinal stromal tumor (GIST), with evidence of recent progression. […] For example, the compounds were administered together 3 weeks out of 4 on Days 1, 8, and 15 of a 28 day cycle as a 1 hour IV infusion. 30 Patients have been enrolled to completed accrual of Stage 1.

[7] = Paclitaxel 175 + Cmpnd (1) 233 mg/M^2 (carboplatin AUC 6)
[8] = Paclitaxel 200 + Cmpnd (1) 266 mg/M^2 (carboplatin AUC 6)

## CN(NC(=O)CC(=O)NN(C)C(=S)c1ccccc1)C(=S)c1ccccc1 [Compound (1)]
[1]; Compound (1) 88 mg/m2 with paclitaxel, at least one patient
  percent increase in Hsp70 plasma levels: about 90%
[1]; Compound (1) 175 mg/m2 with paclitaxel, two patients
  increase in Hsp70 plasma concentrations: more than doubled
[1]; Compound (1) 263 mg/m2 with paclitaxel, individual patients
  increase in Hsp70 plasma concentrations: roughly doubled; also recorded: more than 250%
[1]; Compound (1) 438 mg/m2 with paclitaxel, individual patients
  increase in Hsp70 plasma concentrations: roughly doubled and ≤ 500%
[1]; Compound (1) with paclitaxel, human plasma
  Induction of Hsp70 protein in plasma: dose dependent
[1]; paclitaxel 175 mg/m2 and Compound (1) 88 through 438 mg/m2
  plasma Hsp70 levels in patients: dramatically increased
[2]; Compound (1) with paclitaxel and carboplatin versus platin/taxane combinations, preliminary data
  time-to-progression (Kaplan-Meier, FIG. 2): superior to the platin/taxane combination alone; also recorded: superior to prior platin/taxane combinations alone
[2]; [7]
  Best Response: PR (at least a 30% decrease in the sum of the longest diameters as compared to baseline); also recorded: SD (less than 20% of an increase and less than 30% of a decrease in the sum of the longest diameters as compared to baseline)
  Target Lesions (percent change): −34% and −24% and −62% and −5.9% and −30% and −67%
[2]; [8]
  Best Response: PR (at least a 30% decrease in the sum of the longest diameters as compared to baseline)
  Target Lesions (percent change): −38% and −44%
[2]; Phase 1, eight of sixteen patients, with carboplatin and paclitaxel
  patients achieving a partial response (PR): 50%
[2]; each patient completing the study (#1-#8)
  target lesion size: substantial decrease
[2]; of the 8 patients completing the study
  patients with best response of at least a 30% decrease in sum of longest diameters: 5 patients
[3]; Phase 1, Cohorts 1 and 2, 16 patients, with carboplatin AUC 6 and paclitaxel
  first cycle dose-limiting toxicities: No first cycle dose-limiting toxicities
[3]; Phase 1, usually Grade 1-2, with carboplatin and paclitaxel
  adverse effects (AEs): arthralgia and myalgia, peripheral neuropathy, rash, nausea, and vomiting, fatigue, alopecia, edema, dehydration, constipation, and decreased blood counts
[3]; at the dose levels studied, safety profile similar to carboplatin:paclitaxel alone
  tolerability of carboplatin:paclitaxel:Compound (1) combination: well tolerated
[4]; Stage 1, with paclitaxel 80 mg/m2 weekly
  adverse events: as expected for paclitaxel chemotherapy administration
[4]; initial safety assessment, Compound (1) 106 or 213 mg/m2 with paclitaxel 80 mg/m2 weekly
  dose-limiting toxicities: absence of dose-limiting toxicities
[4]; weekly schedule with paclitaxel
  tolerability of the combination therapy: well-tolerated
[5]; Paclitaxel 80 + Cmpnd (1) 213 mg/M^2 weekly, one value per subject
  Best Response cycle 2: SD (less than 20% of an increase and less than 30% of a decrease in the sum of the longest diameters as compared to baseline); also recorded: PD (at least a 20% increase in the sum of the longest diameters as compared to baseline)
[5]; patients completing the study (#23-#29, #31-33)
  patients with at least a 20% increase in sum of longest diameters (PD): five patients
[6]
  tolerability of addition of Compound (1) to weekly paclitaxel schedule: well-tolerated
35 patients, 8 dose levels, with paclitaxel IV every 3 weeks
  serious effects specifically attributable to Compound (1): No serious effects
Phase I, with paclitaxel, adverse events consistent with those expected for paclitaxel alone
  tolerability of the combination: well-tolerated

From patent US20090042991A1, “Methods of increasing natural killer cell activity for therapy” (priority 2005, published 2009)
